We go through one molecule from patent publication US12564634B2, “Highly dispersible zinc phthalocyanine-silica nanotubes and preparation method therefor” (priority 2019, dated 2026).

The nature of the data set: Dispersion stability analysis with LUMiSizer (transmittance profile under centrifugation). Particulars: aqueous dispersion, 10 min ultrasonication, 5 s intervals, total 55 s, steeper slope = lower dispersion stability, Test Group I value matches the sample stored one day after dispersing. Type of data set: physicochemical. As for the experimental part: In this experimental example, the dispersion stability of highly dispersible zinc phthalocyanine-silica nanotubes was tested. The dispersion stability analysis was performed with the use of LUMiSizer™.
In this regard, the dispersion stability refers to the stability of a dispersed material, and the longer the dispersion state is maintained after being dispersed, the higher the dispersion stability. As a measurement method, there is a method of directly observing the change in dispersion stability of the sample. In this regard, to shorten the observation time, there is a method of letting the sample to experience harsh conditions such as centrifugal force or heating so that the change in dispersion stability of the sample can be checked in a quick time (refer to “Procedures to accelerate the evaluation of long-term stability”, ISO/TR 13097). For example, the sample may undergo centrifugation so that relatively quick sedimentation of particles can occur compared to gravity sedimentation. In this case, layer separation occurs. […] A detector detects the IR rays having transmitted through the sample, and the detected rays are represented in real time as a transmittance profile. It is a method of performing comparative analysis of dispersion stability between samples by quantifying the generation rate, pattern, etc. of such a profile. […]

As to `[Zn+2].c1ccc2c(c1)-c1nc-2nc2[n-]c(nc3nc([n-]c4nc(n1)-c1ccccc1-4)-c1ccccc1-3)c1ccccc21` [Control Group, zinc phthalocyanine], the “increase slope of the average value of the transmittance profile (rate in %/s)” value is reported as 17.70 %/s.
